In patent publication US20230416262A1, “TRPML MODULATORS” (Casma Therapeutics, Inc., priority 2020, published 2023):

test system: TFEB; experiment: TFEB nuclear translocation assay; type: cell-based; details: Homo sapiens; HeLa wt or HeLa TRPML1 KO cells, treated for 2 hrs; ratio of nuclear to ring-region TFEB intensity
Experimental: For the TFEB nuclear translocation assay, HeLa wt or HeLa TRPML1 KO cells were plated at 2700 cells/well into black-walled, 384-well Cell carrier Ultra tissue culture treated plates in complete media and incubated overnight. The next day, cells are treated for 2 hrs with compounds and incubated at 37° C. Cells were then fixed for 30 minutes at room temperature in 4% final PFA and washed five times with 90 μL PBS. PBS is aspirated from the wells and the cells are blocked with 7.5 μL blocking buffer (1.1 PBS/Odyssey block buffer containing 0.1% triton x-100 and 1% goat serum). After 30-60 minutes of block, 7.5 μL of primary anti-TFEB (rabbit) antibody is added for a final dilution of 1:200 antibody in 15 μL blocking buffer. Plates are incubated overnight at 4° C. The following day, plates are washed again into PBS, 90 μL with 5 washes, all PBS is aspirated from the wells and the cells are incubated for 1 hr in 1:1000 goat-anti rabbit Alexa 488 secondary antibody, also containing 10 μg/mL Hoechst 33342. After the 1 hr RT incubation, plates are washed a final time into PBS, sealed with foil and imaged with an automated epifluorescence microscopy (PerkinElmer Operetta CLS). Four different fields were imaged per well using ×20 magnification for DAPI and FITC filter sets. Images were quantified using PerkinElmer Harmony software, briefly: apply flatfield correction (basic/advanced) for input images. Use the Find Nuclei building block with channel set at Hoechst to find the nuclei. Use the Find cytoplasm building block with channel set to Alexa 488 to find the cytoplasm. Use select cell region with Channel set at Alexa 488 and region of interest as Nuclei and define outer border at 0 μm and inner at 45 μm to cover complete nuclei. Use select cell region with Channel set at Alexa 488 and region of interest as ring region and define outer border at −5 μm and inner at 0 μm to define a ring around the nucleus. Use the find calculate intensity parameter to calculate intensity of the nuclear region and the ring region. Define results as Number of nuclei and ratio of A/B where A is Intensity of Nuclei and B is intensity of the ring region.

| EC50 | SMILES |
| --- | --- |
| 8.01 to 9.99 µM | O=S(=O)(Cc1ccccc1)N1CC2(CCCC2)c2ccccc21 [Compound I-1, 1′-phenylmethanesulfonyl-1′,2′-dihydrospiro[cyclopentane-1,3′-indole]] |
| ≥ 10 µM | O=S(=O)(c1ccc2c(c1)CCOC2)N1CC2(CCCC2)c2ccccc21 [Compound I-59, 1′-(3,4-dihydro-1H-2-benzopyran-6-sulfonyl)-1′,2′-dihydrospiro[cyclopentane-1,3′-indole]] |
| 2.01 to 8 µM | CC1(C)OCc2ccc(S(=O)(=O)N3CC4(CCCC4)c4ccccc43)cc21 [Compound I-58, 1′-[(3,3-dimethyl-1,3-dihydro-2-benzofuran-5-yl)sulfonyl]-1′,2′-dihydrospiro[cyclopentane-1,3′-indole]] |
| ≥ 10 µM | O=S(=O)(c1cncc(C(F)F)c1)N1CC2(CCCC2)c2ccccc21 [Compound I-20, 1′-{[S-(difluoromethyl)pyridin-3-yl]sulfonyl}-1′,2′-dihydrospiro[cyclopentane-1,3′-indole]] |
| 2.01 to 8 µM | O=C(OCc1ccccc1)N1CCC2(C1)CN(S(=O)(=O)Cc1ccccc1)c1ccccc12 (stereo not shown) [Compound I-115, benzyl 1-phenylmethanesulfonyl-1,2-dihydrospiro[indole-3,3′-pyrrolidine]-1′-carboxylate] |
| ≤ 2 µM | CN(C)S(=O)(=O)c1ccc(S(=O)(=O)N2CC3(CCOCC3)c3ccccc32)cc1 [Compound I-69, 4-({1,2-dihydrospiro[indole-3,4′-oxan]-1-yl}sulfonyl)-N,N-dimethylbenzene-1-sulfonamide] |
| 2.01 to 8 µM | O=S(=O)(c1ccc(C2CC2)cc1)N1CC2(CCCC2)c2ccccc21 [Compound I-29, 1′-(4-cyclopropylbenzenesulfonyl)-1′,2′-dihydrospiro[cyclopentane-1,3′-indole]] |
| ≥ 10 µM | CC(C)(O)c1ccc(S(=O)(=O)N2CC3(CCCC3)c3ccccc32)cc1 [Compound I-50, 2-[4-({1′,2′-dihydrospiro[cyclopentane-1,3′-indol]-1′-yl}sulfonyl)phenyl]propan-2-ol] |
| ≥ 10 µM | CN(C)S(=O)(=O)c1ccc(S(=O)(=O)N2CC3(CCCCC3)n3nccc32)cc1 [Compound I-125, 4-({1′,2′-dihydrospiro[cyclohexane-1,3′-pyrazolo[1,5-a]imidazol]-1′-yl}sulfonyl)-N,N-dimethylbenzene-1-sulfonamide] |
| ≥ 10 µM | N=S(=O)(c1ccc(S(=O)(=O)N2CC3(CCCCC3)c3ccccc32)cc1)C1CC1 (stereo not shown) [Compound I-151, 1′-((4-(cyclopropanesulfonimidoyl)phenyl)sulfonyl)spiro[cyclohexane-1,3′-indoline]] |
| ≥ 10 µM | O=S(=O)(CC(F)c1ccccc1)N1CC2(CCCC2)c2ccccc21 (stereo not shown) [Compound I-38, 1′-(2-fluoro-2-phenylethanesulfonyl)-1′,2′-dihydrospiro[cyclopentane-1,3′-indole]] |
| ≥ 10 µM | O=S(=O)(c1ccn(C2CC2(F)F)n1)N1CC2(CCCC2)c2ccccc21 (stereo not shown) [Compound I-43, 1′-{[1-(2,2-difluorocyclopropyl)-1H-pyrazol-3-yl]sulfonyl}-1′,2′-dihydrospiro[cyclopentane-1,3′-indole]] |
| ≥ 10 µM | COC(CS(=O)(=O)N1CC2(CCCC2)c2ccccc21)c1ccc(F)cc1 (stereo not shown) [Compound I-7, 1′-[2-(4-fluorophenyl)-2-methoxyethanesulfonyl]-1′,2′-dihydrospiro[cyclopentane-1,3′-indole]] |
| ≤ 2 µM | CN(C)S(=O)(=O)c1ccc(S(=O)(=O)N2CC3(CCCCC3)n3nc(C(F)(F)F)cc32)cc1 [Compound I-153, N,N-dimethyl-4-{[6′-(trifluoromethyl)-1′,2′-dihydrospiro[cyclohexane-1,3′-pyrazolo[1,5-a]imidazol]-1′-yl]sulfonyl}benzene-1-sulfonamide] |
| 8.01 to 9.99 µM | Cc1ccc(S(=O)(=O)N2CC3(CCCC3)c3ccccc32)cc1F [Compound I-15, 1′-(3-fluoro-4-methylbenzenesulfonyl)-1′,2′-dihydrospiro[cyclopentane-1,3′-indole]] |
| ≥ 10 µM | O=S(=O)(c1ccc(Br)cc1)N1CC2(CCCC2)c2ccccc21 [Compound I-32, 1′-(4-bromobenzenesulfonyl)-1′,2′-dihydrospiro[cyclopentane-1,3′-indole]] |
| ≥ 10 µM | O=S(=O)(c1cnn(C2CCOCC2)c1)N1CC2(CCCC2)c2ccccc21 [Compound I-19] |
| 2.01 to 8 µM | CN(C)S(=O)(=O)c1ccc(S(=O)(=O)N2CC3(CCC(O)CC3)c3ccccc32)cc1 (stereo not shown) [Compound I-72, 4-({4-hydroxy-1′,2′-dihydrospiro[cyclohexane-1,3′-indol]-1′-yl}sulfonyl)-N,N-dimethylbenzene-1-sulfonamide] |
| 2.01 to 8 µM | O=S(=O)(Cc1ccc(C(F)F)cc1)N1CC2(CCCC2)c2ccccc21 [Compound I-45, 1′-{[4-(difluoromethyl)phenyl]methanesulfonyl}-1′,2′-dihydrospiro[cyclopentane-1,3′-indole]] |
| ≥ 10 µM | O=S(=O)(Cc1ccc(F)cc1)N1CC2(CCCC2)c2ccccc21 [Compound I-30, 1′-[(4-fluorophenyl)methanesulfonyl]-1′,2′-dihydrospiro[cyclopentane-1,3′-indole]] |
| ≥ 10 µM | CN(c1ccc(S(=O)(=O)N2CC3(CCCC3)c3ccccc32)cc1)S(C)(=O)=O [Compound I-52, N-[4-({1′,2′-dihydrospiro[cyclopentane-1,3′-indol]-1′-yl}sulfonyl)phenyl]-N-methylmethanesulfonamide] |
| ≥ 10 µM | O=S(=O)(c1ccc(C2OCCO2)cc1F)N1CC2(CCCC2)c2ccccc21 [Compound I-22, 1′-[4-(1,3-dioxolan-2-yl)-2-fluorobenzenesulfonyl]-1′,2′-dihydrospiro[cyclopentane-1,3′-indole]] |
| ≥ 10 µM | O=S(=O)(c1ccc2c(c1)COC2)N1CC2(CCCC2)c2ccccc21 [Compound I-36, 1′-(1,3-dihydro-2-benzofuran-5-sulfonyl)-1′,2′-dihydrospiro[cyclopentane-1,3′-indole]] |
| 2.01 to 8 µM | Cc1cc2n(n1)C1(CCCCC1)CN2S(=O)(=O)c1ccc(S(=O)(=O)N(C)C)cc1 [Compound I-123, N,N-dimethyl-4-({6′-methyl-1′,2′-dihydrospiro[cyclohexane-1,3′-pyrazolo[1,5-a]imidazol]-1′-yl}sulfonyl)benzene-1-sulfonamide] |
| 2.01 to 8 µM | CN(C)S(=O)(=O)c1ccc(S(=O)(=O)N2CC3(CCOC3)c3ccccc32)cc1 (stereo not shown) [Compound I-76, 4-({1,2-dihydrospiro[indole-3,3′-oxolan]-1-yl}sulfonyl)-N,N-dimethylbenzene-1-sulfonamide] |
